Measurements from article PMC11508362, “Discovery of Novel Thiazole-Based SIRT2 Inhibitors as Anticancer Agents: Molecular Modeling, Chemical Synthesis and Biological Assays” (International Journal of Molecular Sciences, 2024).
“Also recorded” adds a separate entry of the source.

Tests used:
SCC13 cells = assay: Cell viability by sulforhodamine B assay, SCC13; assay type: cell-based; settings: 48 h, increasing concentrations
Experimental: (§1) SCC13 and HaCaT cell lines were a kind gift from Prof. Alessio Nencioni (University of Genoa), and cells were maintained in Gibco™ Keratinocyte SFM 1X medium supplied with prequalified human recombinant epidermal growth factor 1–53 (EGF 1–53) and bovine pituitary extract (BPE, CAT# 17005042) (Thermo Fisher Scientific, Milano, Italy), with 50 IU/mL penicillin and 50 μg/mL streptomycin and cultured as in [36]. SCC13 and HaCaT cells were treated for 48 h with the putative SIRT2 inhibitor, and cell viability was analyzed by a sulforhodamine B assay. Briefly, 5000 cells/well were seeded in 96-well plates in triplicate and allowed to adhere overnight. The day after, the medium was replaced with fresh medium containing increasing concentrations of 5a. After 48 h, TCA was added, and samples were processed as previously described.

SIRT3 = target: T1, SIRT3 (Homo sapiens, UniProt Q9NTG7); assay: SIRT3 deacetylation reaction, recombinant protein; assay type: biochemical; settings: deacetylase activity, SD always ≤10%
T1 sequence (Q9NTG7 1-399): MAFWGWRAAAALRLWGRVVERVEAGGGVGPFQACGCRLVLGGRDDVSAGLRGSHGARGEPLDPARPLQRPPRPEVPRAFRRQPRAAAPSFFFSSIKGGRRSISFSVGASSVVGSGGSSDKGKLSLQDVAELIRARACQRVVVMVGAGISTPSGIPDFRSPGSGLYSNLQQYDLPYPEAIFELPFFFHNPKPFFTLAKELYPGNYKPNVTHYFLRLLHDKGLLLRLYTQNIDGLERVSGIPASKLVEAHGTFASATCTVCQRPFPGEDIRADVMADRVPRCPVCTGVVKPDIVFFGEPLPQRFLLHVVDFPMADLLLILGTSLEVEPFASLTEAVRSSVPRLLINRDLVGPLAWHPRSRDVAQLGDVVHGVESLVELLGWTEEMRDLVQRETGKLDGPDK
Experimental: (§2) Next, the selectivity of the compounds for SIRT2 against other sirtuins was also determined. The compounds were tested at the final concentration of 150 µM in the deacetylation reaction of SIRT1, SIRT3 and SIRT6, with this last one being promoted by the addition of the SIRT6 activator MDL-800 and also in the depalmitoylation reaction of SIRT6.

SIRT6 [1] = target: T2, SIRT6 (Homo sapiens, UniProt Q8N6T7); assay: SIRT6 deacetylation reaction promoted by the SIRT6 activator MDL-800, recombinant protein; assay type: biochemical; settings: 150 µM, with SIRT6 activator MDL-800, SD always ≤10%
T2 sequence (Q8N6T7 whole entry, species assumed): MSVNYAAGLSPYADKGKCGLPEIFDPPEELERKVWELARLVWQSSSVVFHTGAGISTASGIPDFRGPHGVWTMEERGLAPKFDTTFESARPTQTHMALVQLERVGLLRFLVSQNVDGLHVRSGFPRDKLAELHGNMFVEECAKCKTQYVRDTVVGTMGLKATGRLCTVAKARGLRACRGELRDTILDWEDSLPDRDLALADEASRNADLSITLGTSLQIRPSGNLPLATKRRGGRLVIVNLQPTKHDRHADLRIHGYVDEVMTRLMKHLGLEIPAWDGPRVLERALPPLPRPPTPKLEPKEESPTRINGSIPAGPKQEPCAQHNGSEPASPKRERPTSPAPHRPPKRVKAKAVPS
Experimental: as §2

HaCaT cells = assay type: cell-based
Experimental: as §1

SIRT1 = target: T3, SIRT1 (Homo sapiens, UniProt Q96EB6); assay: SIRT1 deacetylation reaction, recombinant protein; assay type: biochemical; settings: deacetylase activity, SD always ≤10%
T3 sequence (Q96EB6 1-747): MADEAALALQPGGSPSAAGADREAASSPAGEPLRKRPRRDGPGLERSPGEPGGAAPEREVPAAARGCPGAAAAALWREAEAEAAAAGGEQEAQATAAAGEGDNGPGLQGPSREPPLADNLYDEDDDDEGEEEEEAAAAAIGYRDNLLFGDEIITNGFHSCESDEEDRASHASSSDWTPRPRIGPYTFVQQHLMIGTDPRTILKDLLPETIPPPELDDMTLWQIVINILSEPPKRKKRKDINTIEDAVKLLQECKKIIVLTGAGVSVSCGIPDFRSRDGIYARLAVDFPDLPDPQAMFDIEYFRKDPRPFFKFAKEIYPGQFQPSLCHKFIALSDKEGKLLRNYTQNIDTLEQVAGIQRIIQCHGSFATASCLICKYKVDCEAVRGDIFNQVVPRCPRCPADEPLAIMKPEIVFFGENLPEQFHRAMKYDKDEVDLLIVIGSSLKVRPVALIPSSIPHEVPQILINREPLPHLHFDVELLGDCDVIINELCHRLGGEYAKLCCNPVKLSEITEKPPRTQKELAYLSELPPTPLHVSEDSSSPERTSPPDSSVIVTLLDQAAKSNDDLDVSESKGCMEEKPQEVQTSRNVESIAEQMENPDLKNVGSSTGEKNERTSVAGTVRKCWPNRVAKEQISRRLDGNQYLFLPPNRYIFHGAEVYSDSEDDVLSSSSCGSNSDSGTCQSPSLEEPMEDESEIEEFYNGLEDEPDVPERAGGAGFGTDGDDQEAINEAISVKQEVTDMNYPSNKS
Experimental: as §2

SIRT2 [2] = target: T4, SIRT2 (Homo sapiens, UniProt Q8IXJ6); assay: SIRT2 deacetylase activity, recombinant SIRT2 with acetylated peptide H3K9Ac and NAD+
T4 sequence (Q8IXJ6 1-389): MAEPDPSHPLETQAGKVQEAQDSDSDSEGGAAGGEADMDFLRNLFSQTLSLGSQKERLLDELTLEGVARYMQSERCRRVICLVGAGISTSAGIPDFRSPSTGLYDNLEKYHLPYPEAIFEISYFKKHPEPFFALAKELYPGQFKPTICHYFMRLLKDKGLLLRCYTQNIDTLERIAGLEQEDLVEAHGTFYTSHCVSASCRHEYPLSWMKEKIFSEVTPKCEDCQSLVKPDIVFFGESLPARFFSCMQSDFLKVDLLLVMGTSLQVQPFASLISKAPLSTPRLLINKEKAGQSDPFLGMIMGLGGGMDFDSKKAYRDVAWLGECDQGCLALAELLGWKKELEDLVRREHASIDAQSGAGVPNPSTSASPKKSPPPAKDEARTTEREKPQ
Experimental: The effect of urea derivatives on SIRT2 deacetylase activity was evaluated upon incubation of recombinant SIRT2 with an acetylated peptide (H3K9Ac, a peptide acetylated on Lys 9) and the co-substrate NAD^+.

SIRT6 [3] = target: T2, SIRT6; assay: SIRT6 depalmitoylation reaction (H3K9Palm), recombinant protein; assay type: biochemical; settings: 150 µM, SD always ≤10%
Experimental: as §2

[4] = tested on: acetylation of α-tubulin in SCC13 cells; assay: Western blot of α-tubulin acetylation (endogenous SIRT2 inhibition) in SCC13 cells; assay type: cell-based; settings: 5 μM, 48 h, Western blot normalized to total α-tubulin
Experimental: To confirm that the effect of 5a on cell viability was due to its ability to inhibit the endogenous SIRT2, Western blot analyses were performed to quantify the level of acetylation of α-tubulin, a direct substrate of SIRT2 enzymatic activity.
SCC13 cells (3 × 10^5) were seeded in 60 mm Petri dishes and left to adhere overnight. The day after, the medium was replaced with a medium containing 5a at a final concentration of 5 µM or the respective amount of DMSO vehicle. After 48 h, the medium was removed, and cells were washed with PBS and lysed by scraping with 100 µL of lysis buffer (25 mM Tris-HCl, pH 7.8; 2 mM DTT; 2 mM EDTA, 10% glycerol; 1% Triton® X-100). The lysate was clarified by centrifugation, and the protein concentration was measured using the Bradford assay. Twenty µg of proteins were loaded on a 10% polyacrylamide gel and then transferred to a nitrocellulose membrane. The membrane was saturated with 5% skim milk powder solution in TBS-Tween 0.05%. To determine the acetylation of alpha-tubulin, membranes were incubated with an anti-acetyl-alpha-tubulin antibody (#5335, Cell Signaling Technology, Danvers, MA, USA), whose signal was normalized on the total amount of alpha-tubulin (#2125, Cell Signaling Technology).

SIRT2 [5] = target: T4, SIRT2; parameters: method as in PMID 37765125; settings: at 150 μM; cited from earlier work

| inhibition at 150 µM (SIRT3) | % Inhibition SIRT6 (Deacetylase) (SIRT6 [1]) | inhibition at 150 µM (SIRT1) | IC50 (SIRT2 [2]) | inhibition at 150 µM (SIRT2 [2]; read-out: % Inhibition SIRT2 (at 150 μM)) | % Inhibition SIRT6 (Depalmiotoylase) (SIRT6 [3]) | Compound | cell death / toxicity (cell viability, SRB assay) (SCC13 cells) | toxicity (cell viability, SRB assay) (HaCaT cells) | level of α-tubulin acetylation vs control cells [4] | SIRT2 inhibition percentage (SIRT2 [5]) |
| --- | --- | --- | --- | --- | --- | --- | --- | --- | --- | --- |
| 36% | ni | 100% | 9 ± 2 µM | 98 ± 5% | ni | CCOC(=O)c1sc(NC(=O)Nc2cccc(OC)c2)nc1-c1ccc(Br)cc1 [Compound 5a, Ethyl4-(4-bromophenyl)-2-(3-(3-methoxyphenyl)ureido)thiazole-5 carboxylate] | concentration-dependent toxicity; also recorded: concentration-dependent cell death | not on the normal keratinocyte cell line HaCaT | increases α-tubulin acetylation; also recorded: increased levels of alpha-tubulin acetylation | – |
| – | – | – | – | – | – | CCc1ccc(Nc2nc(-c3ccc(Cl)cc3)cs2)cc1SC [Compound T1] | – | – | – | 100% |
